Test results from PMC4595834, “Comparison of carbon-sulfur and carbon-amine bond in therapeutic drug: 4β-S-aromatic heterocyclic podophyllum derivatives display antitumor activity” (Scientific Reports, 2015).
Where two headings read alike, the source gives them in different places.

Key:
[1] = MTT cytotoxicity assay, normal hepatocyte HL-7702; type: cell-based; conditions: HL-7702 cells (normal hepatocyte cell line), normal human hepatocyte cell line, drug exposure 48 h, mean ± SD (n = 3), read-out: Cytotoxic activity (IC50) HL-7702
Method: (§1) Cytotoxicity of the podophyllum derivatives were determined by reading the absorbance at 492 nm on a multiplate reader (Thermo Fisher Scientific, Multiskan MK3). Cell cycle analysis and apoptosis analysis were analyzed by flow cytometry (Accuri C6, BD). Immunofluorescence images were recorded using laser scanning microscope (Perkin-Elmer & Olympus, UltraView VoX & Ix81). The gel for the decatenation of kDNA by Topoisomerase II study was photographed with UV illumination, Tanon 1600 (Tanon Science & Technology Co., Ltd., Shanghai). The nitrocellulose blotting membrane for western blot analysis was visualized using X-ray film processor and X-ray film, Fujifilm SUPER RX-N-C.
(§2) Cytotoxicity assay was performed on human lung adenocarcinoma epithelial cell line (A549), henrietta lacks strain of cancer cells (HeLa), human gastric carcinoma cell line (BGC 823), and normal human hepatocyte cell line (HL-7702). Cells (3500–13,000) in a 100 μL culture medium per well were seeded into 96-well microtest plates (Falcon, CA). A549 cell lines, HeLa cell lines and HL-7702 cell lines were cultured in DMEM supplemented with 10% CS, 100 mg/L penicillin G, 100 mg/L streptomycin. BGC 823 cell lines were cultured in RPMI medium 1640 supplemented with 10% CS, 100 mg/L penicillin G, and 100 mg/L streptomycin. The cells were incubated at 37 °C, in a humidified atmosphere with 5% CO2 for 48 h. For all cell lines, the microculture tetrazolium [3-(4, 5-dimethylthiazol-2-yl)-2, 5-diphenyltetrazolium bromide, MTT; Sigma, St. Louis, MO] assay was performed to measure the cytotoxic effects. Drug stock solutions (the each drug concentration was 0.5, 1, 10, 20, 50, 100, 200, and 500 μM, respectively) were prepared in DMSO and the final solvent concentration was ≤ 2% DMSO (v/v), a concentration without effect on cell replication. Initial seeding densities varied among the cell lines to ensure a final absorbance reading in control (untreated) cultures in the range 0.6–0.8 A492 units. Drug exposure was for 2 days, and the IC50 value, the drug concentration that reduced the absorbance by 50%, was interpolated from dose-response data. Each test was performed in triplicate, and absorbance readings varied no more than 5%. Data presented as means ± standard deviation (SD). Statistical analyses were performed by the analysis of variance (ANOVA). All statistical analyses were performed using Origin version 8.0 ([…], OriginLab Corp., Northampton, MA, USA). Sigmoidal dose responses and non-linear regression analyses were undertaken to identify half-maximal concentrations for each of the drugs. To evaluate differences in IC50 concentrations, analysis of variance combined with Tukey’s multiple range test was used.

[2] = tested on: BGC-823 cells; test: MTT cytotoxicity assay, BGC-823; type: cell-based, human; conditions: Homo sapiens, BGC-823; MTT, drug exposure 48 h, mean ± SD (n = 3); read-out: Cytotoxic activity (IC50) BGC-823
Method: as §1, §2

[3] = tested on: HeLa cells; test: MTT cytotoxicity assay, HeLa; type: cell-based, human; conditions: Homo sapiens, HeLa; MTT, drug exposure 48 h, mean ± SD (n = 3); read-out: Cytotoxic activity (IC50) HeLa
Method: as §1, §2

[4] = tested on: A549 cells; test: MTT cytotoxicity assay, A549; type: cell-based, human; conditions: MTT, drug exposure 48 h, mean ± SD (n = 3), read-out: Cytotoxic activity (IC50) A549
Method: as §1, §2

Row | Structure (SMILES) | IC50 at 48 h [1] [µM] | IC50 [2] [µM] | IC50 [3] [µM] | IC50 ([4]; Homo sapiens, A549, 48 h) [µM] | IC50 [4] [µM]
1 | COc1cc([C@@H]2c3cc4c(cc3[C@@H](Sc3ncccn3)[C@H]3COC(=O)[C@H]23)OCO4)cc(OC)c1O [4′S, 4β-S-(pyrimidine-2)-4-deoxy-4′-demethyl-podophyllotoxin] | 140 ± 3.82 | 11.2 ± 0.35 | 12.92 ± 0.08 | 14 ± 1.66 | –
2 | COc1cc([C@@H]2c3cc4c(cc3[C@@H](Nc3ccccn3)[C@H]3COC(=O)[C@H]23)OCO4)cc(OC)c1OC [Compound 3N, 4β-NH-(pyridine-2)-4-deoxy-podophyllotoxin] | 28.2 ± 2.58 | 14.3 ± 3.22 | 13.7 ± 2.13 | 28.2 ± 2.58 | –
3 | COc1cc([C@@H]2c3cc4c(cc3[C@@H](Nc3ncnc5nc[nH]c35)[C@H]3COC(=O)[C@H]23)OCO4)cc(OC)c1O [6′N, 4β-NH-(purine-6)-4-deoxy-4′-demethylepipodophyllotoxin] | 19.2 ± 1.31 | 43.2 ± 1.36 | 20.5 ± 0.38 | 15.7 ± 1.61 | –
4 | COc1cc([C@@H]2c3cc4c(cc3[C@@H](Sc3ccccn3)[C@H]3COC(=O)[C@H]23)OCO4)cc(OC)c1OC [Compound 3S, 4β-S-(pyridine-2)-4-deoxy-podophyllotoxin] | 89.7 ± 2.45 | 1.09 ± 0.06 | 0.9 ± 0.03 | 19.1 ± 1.52 | –
5 | COc1cc([C@@H]2c3cc4c(cc3[C@@H](Sc3ncnc5nc[nH]c35)[C@H]3COC(=O)[C@H]23)OCO4)cc(OC)c1OC [Compound 6S, 4β-S-(purine-6)-4-deoxy-podophyllotoxin] | 20.6 ± 1.38 | 11.3 ± 1.71 | 1.21 ± 0.13 | 0.57 ± 0.22 | –
6 | COc1cc([C@@H]2c3cc4c(cc3[C@@H](Nc3ncnc5nc[nH]c35)[C@H]3COC(=O)[C@H]23)OCO4)cc(OC)c1OC [Compound 6N] | 13.6 ± 1.26 | 12.5 ± 1.35 | 5.85 ± 0.36 | 3.72 ± 0.11 | –
7 | COc1cc([C@@H]2c3cc4c(cc3[C@@H](Nc3ccccn3)[C@H]3COC(=O)[C@H]23)OCO4)cc(OC)c1O [3′N, 4β-NH-(pyridine-2)-4-deoxy-4′-demethyl-podophyllotoxin] | 122 ± 5.88 | 111 ± 3.55 | 96.5 ± 7.64 | 122 ± 4.6 | –
8 | COc1cc([C@@H]2c3cc4c(cc3[C@@H](Nc3nc5ccccc5s3)[C@H]3COC(=O)[C@H]23)OCO4)cc(OC)c1OC [Compound 5N] | 5.33 ± 0.14 | 13.2 ± 0.86 | 2.32 ± 0.28 | 15.2 ± 0.43 | –
9 | COc1cc([C@@H]2c3cc4c(cc3[C@@H](Sc3ncccn3)[C@H]3COC(=O)[C@H]23)OCO4)cc(OC)c1OC [Compound 4S, 4β-S-(pyrimidine-2)-4-deoxy-podophyllotoxin] | 51.1 ± 3.17 | 0.49 ± 0.01 | 3.64 ± 0.46 | 2.4 ± 0.76 | –
10 | COc1cc([C@@H]2c3cc4c(cc3[C@@H](Nc3nc5ccccc5s3)[C@H]3COC(=O)[C@H]23)OCO4)cc(OC)c1O [5′N, 4β-NH-(benzothiazole-2)-4-deoxy-4′-demethyl-podophyllotoxin] | 18.6 ± 1.48 | 10.5 ± 0.45 | 5.65 ± 0.11 | 14.2 ± 0.43 | –
11 | COc1cc([C@@H]2c3cc4c(cc3[C@@H](Nc3nncs3)[C@H]3COC(=O)[C@H]23)OCO4)cc(OC)c1O [2′N, 4β-NH-(1,3,4-thiodizole-2)-4-deoxy-4′-demethyl-podophyllotoxin] | 28.7 ± 1.31 | 15.4 ± 0.63 | 10.3 ± 0.41 | 2.22 ± 0.31 | –
12 | COc1cc([C@@H]2c3cc4c(cc3[C@@H](Sc3nc5ccccc5s3)[C@H]3COC(=O)[C@H]23)OCO4)cc(OC)c1O [5′S, 4β-S-(benzothiazole-2)-4-deoxy-4′-demethyl-podophyllotoxin] | 98.5 ± 3.51 | 1.87 ± 0.36 | 1.71 ± 0.07 | 8.25 ± 0.83 | –
13 | COc1cc([C@@H]2c3cc4c(cc3[C@@H](Nc3ncccn3)[C@H]3COC(=O)[C@H]23)OCO4)cc(OC)c1O [4′N, 4β-NH-(pyrimidine-2)-4-deoxy-4′-demethyl-podophyllotoxin] | 41.8 ± 1.75 | 64.2 ± 4.43 | 44.4 ± 2.37 | 70.4 ± 3.92 | –
14 | COc1cc([C@@H]2c3cc4c(cc3[C@@H](Sc3ncnc5nc[nH]c35)[C@H]3COC(=O)[C@H]23)OCO4)cc(OC)c1O [6′S, 4β-S-(purine-6)-4-deoxy-4′-demethyl-podophyllotoxin] | 27.5 ± 2.35 | 45 ± 3.68 | 10.3 ± 0.41 | 7.45 ± 0.18 | –
15 | COc1cc([C@@H]2c3cc4c(cc3[C@@H](Nc3nncs3)[C@H]3COC(=O)[C@H]23)OCO4)cc(OC)c1OC [Compound 2N, 4β-NH-(1,3,4-thiodiazole-2)-4-deoxy-podophyllotoxin] | 18.7 ± 3.19 | 2.33 ± 0.24 | 6.33 ± 0.36 | 12.5 ± 0.55 | –
16 | COc1cc([C@@H]2c3cc4c(cc3[C@@H](Sc3nncs3)[C@H]3COC(=O)[C@H]23)OCO4)cc(OC)c1OC [Compound 2S] | 36.2 ± 3.81 | 0.31 ± 0.02 | 1.25 ± 0.36 | 1.26 ± 0.1 | –
17 | COc1cc([C@@H]2c3cc4c(cc3[C@@H](Sc3nc5ccccc5s3)[C@H]3COC(=O)[C@H]23)OCO4)cc(OC)c1OC [Compound 5S, 4β-S-(benzothiazole-2)-4-deoxy-podophyllotoxin] | 31.8 ± 1.62 | 1.04 ± 0.13 | 0.97 ± 0.12 | 11.1 ± 1.71 | –
18 | COc1cc([C@@H]2c3cc4c(cc3[C@@H](Nc3ncccn3)[C@H]3COC(=O)[C@H]23)OCO4)cc(OC)c1OC [Compound 4N, 4β-NH-(pyrimidine-2)-4-deoxy-podophyllotoxin] | 47.3 ± 2.71 | 63.6 ± 3.77 | 26.4 ± 1.52 | 59.6 ± 3.48 | –
19 | COc1cc([C@@H]2c3cc4c(cc3[C@@H](O[C@@H]3O[C@@H]5CO[C@@H](C)O[C@H]5[C@H](O)[C@H]3O)[C@H]3COC(=O)[C@H]23)OCO4)cc(OC)c1O [etoposide, reference compound] | 24.6 ± 3.82 | 20.5 ± 2.55 | 59.4 ± 2.45 | – | 20.1 ± 1.95
